Source: PubChem BioAssay (NCI)
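Briefly, cells in 96-well plates were exposed to five compound concentrations for 48 h, and endpoints were estimated by linear interpolation. TGI is the concentration that stops growth completely.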

Assays:
Assay in all cases: DTP human tumour cell line panel, 48 h
786-0 renal = tested on: 786-0 renal
A498 renal = tested on: A498 renal
A549 NSCLC = tested on: A549 NSCLC
ACHN renal = tested on: ACHN renal
BT-549 breast = tested on: BT-549 breast
CAKI-1 renal = tested on: CAKI-1 renal
CCRF-CEM leukemia = tested on: CCRF-CEM leukemia
COLO 205 colon = tested on: COLO 205 colon
DU-145 prostate = tested on: DU-145 prostate
EKVX NSCLC = tested on: EKVX NSCLC
HCC-2998 colon = tested on: HCC-2998 colon
HCT-116 colon = tested on: HCT-116 colon
HCT-15 colon = tested on: HCT-15 colon
HL-60(TB) leukemia = tested on: HL-60(TB) leukemia
HOP-62 NSCLC = tested on: HOP-62 NSCLC
HOP-92 NSCLC = tested on: HOP-92 NSCLC
HS 578T breast = tested on: HS 578T breast
HT29 colon = tested on: HT29 colon
IGROV1 ovarian = tested on: IGROV1 ovarian
K-562 leukemia = tested on: K-562 leukemia
KM12 colon = tested on: KM12 colon
LOX IMVI melanoma = tested on: LOX IMVI melanoma
M14 melanoma = tested on: M14 melanoma
MALME-3M melanoma = tested on: MALME-3M melanoma
MCF7 breast = tested on: MCF7 breast
MDA-MB-231 breast = tested on: MDA-MB-231 breast
MDA-MB-435 = tested on: MDA-MB-435
MDA-N = tested on: MDA-N
MOLT-4 leukemia = tested on: MOLT-4 leukemia
NCI-H226 lung = tested on: NCI-H226 lung
NCI-H23 lung = tested on: NCI-H23 lung
NCI-H460 lung = tested on: NCI-H460 lung
NCI-H522 lung = tested on: NCI-H522 lung
NCI/ADR-RES ovarian = tested on: NCI/ADR-RES ovarian
OVCAR-3 ovarian = tested on: OVCAR-3 ovarian
OVCAR-4 ovarian = tested on: OVCAR-4 ovarian
OVCAR-5 ovarian = tested on: OVCAR-5 ovarian
OVCAR-8 ovarian = tested on: OVCAR-8 ovarian
PC-3 prostate = tested on: PC-3 prostate
RPMI-8226 leukemia = tested on: RPMI-8226 leukemia
RXF 393 renal = tested on: RXF 393 renal
SF-268 CNS = tested on: SF-268 CNS
SF-295 CNS = tested on: SF-295 CNS
SF-539 CNS = tested on: SF-539 CNS
SK-MEL-2 melanoma = tested on: SK-MEL-2 melanoma
SK-MEL-28 melanoma = tested on: SK-MEL-28 melanoma
SK-MEL-5 melanoma = tested on: SK-MEL-5 melanoma
SK-OV-3 ovarian = tested on: SK-OV-3 ovarian
SN12C renal = tested on: SN12C renal
SNB-19 CNS = tested on: SNB-19 CNS
SNB-75 CNS = tested on: SNB-75 CNS
SR leukemia = tested on: SR leukemia
SW-620 colon = tested on: SW-620 colon
T-47D breast = tested on: T-47D breast
TK-10 renal = tested on: TK-10 renal
U251 CNS = tested on: U251 CNS
UACC-257 melanoma = tested on: UACC-257 melanoma
UACC-62 melanoma = tested on: UACC-62 melanoma
UO-31 renal = tested on: UO-31 renal

SMILES: COC(=O)C1Cc2cccc(C)c2C1 (stereo not given)
- TGI (786-0 renal): > 100 µM
- TGI (A498 renal): > 100 µM
- TGI (A549 NSCLC): > 100 µM
- TGI (ACHN renal): > 100 µM
- TGI (BT-549 breast): > 100 µM
- TGI (CAKI-1 renal): > 100 µM
- TGI (CCRF-CEM leukemia): > 100 µM
- TGI (COLO 205 colon): > 100 µM
- TGI (DU-145 prostate): > 100 µM
- TGI (EKVX NSCLC): > 100 µM
- TGI (HCC-2998 colon): > 100 µM
- TGI (HCT-116 colon): > 100 µM
- TGI (HCT-15 colon): > 100 µM
- TGI (HL-60(TB) leukemia): > 100 µM
- TGI (HOP-62 NSCLC): > 100 µM
- TGI (HOP-92 NSCLC): > 100 µM
- TGI (HS 578T breast): > 100 µM
- TGI (HT29 colon): > 100 µM
- TGI (IGROV1 ovarian): > 100 µM
- TGI (K-562 leukemia): > 100 µM
- TGI (KM12 colon): > 100 µM
- TGI (LOX IMVI melanoma): > 100 µM
- TGI (M14 melanoma): > 100 µM
- TGI (MALME-3M melanoma): > 100 µM
- TGI (MCF7 breast): 71.6 µM
- TGI (MDA-MB-231 breast): > 100 µM
- TGI (MDA-MB-435): > 100 µM
- TGI (MDA-N): > 100 µM
- TGI (MOLT-4 leukemia): > 100 µM
- TGI (NCI-H226 lung): > 100 µM
- TGI (NCI-H23 lung): > 100 µM
- TGI (NCI-H460 lung): > 100 µM
- TGI (NCI-H522 lung): > 100 µM
- TGI (NCI/ADR-RES ovarian): > 100 µM
- TGI (OVCAR-3 ovarian): > 100 µM
- TGI (OVCAR-4 ovarian): > 100 µM
- TGI (OVCAR-5 ovarian): > 100 µM
- TGI (OVCAR-8 ovarian): > 100 µM
- TGI (PC-3 prostate): > 100 µM
- TGI (RPMI-8226 leukemia): > 100 µM
- TGI (RXF 393 renal): > 100 µM
- TGI (SF-268 CNS): > 100 µM
- TGI (SF-295 CNS): > 100 µM
- TGI (SF-539 CNS): > 100 µM
- TGI (SK-MEL-2 melanoma): > 100 µM
- TGI (SK-MEL-28 melanoma): > 100 µM
- TGI (SK-MEL-5 melanoma): > 100 µM
- TGI (SK-OV-3 ovarian): > 100 µM
- TGI (SN12C renal): > 100 µM
- TGI (SNB-19 CNS): > 100 µM
- TGI (SNB-75 CNS): > 100 µM
- TGI (SR leukemia): > 100 µM
- TGI (SW-620 colon): > 100 µM
- TGI (T-47D breast): > 100 µM
- TGI (TK-10 renal): > 100 µM
- TGI (U251 CNS): > 100 µM
- TGI (UACC-257 melanoma): > 100 µM
- TGI (UACC-62 melanoma): > 100 µM
- TGI (UO-31 renal): > 100 µM

SMILES: c1ccc(C2C3=C(CCCC3)Nc3nc4cc5ccccc5cc4n32)cc1 (stereo not given)
- TGI (786-0 renal): > 100 µM
- TGI (A498 renal): > 100 µM
- TGI (A549 NSCLC): > 100 µM
- TGI (ACHN renal): > 100 µM
- TGI (BT-549 breast): > 100 µM
- TGI (CAKI-1 renal): > 100 µM
- TGI (CCRF-CEM leukemia): > 100 µM
- TGI (COLO 205 colon): > 100 µM
- TGI (DU-145 prostate): > 100 µM
- TGI (EKVX NSCLC): > 100 µM
- TGI (HCC-2998 colon): > 100 µM
- TGI (HCT-116 colon): > 100 µM
- TGI (HCT-15 colon): > 100 µM
- TGI (HL-60(TB) leukemia): > 100 µM
- TGI (HOP-92 NSCLC): > 100 µM
- TGI (HS 578T breast): > 100 µM
- TGI (HT29 colon): > 100 µM
- TGI (IGROV1 ovarian): > 100 µM
- TGI (K-562 leukemia): > 100 µM
- TGI (KM12 colon): > 100 µM
- TGI (LOX IMVI melanoma): > 100 µM
- TGI (M14 melanoma): > 100 µM
- TGI (MALME-3M melanoma): > 100 µM
- TGI (MCF7 breast): > 100 µM
- TGI (MDA-MB-231 breast): > 100 µM
- TGI (MDA-MB-435): > 100 µM
- TGI (MDA-N): > 100 µM
- TGI (MOLT-4 leukemia): > 100 µM
- TGI (NCI-H226 lung): > 100 µM
- TGI (NCI-H23 lung): > 100 µM
- TGI (NCI-H460 lung): > 100 µM
- TGI (NCI-H522 lung): > 100 µM
- TGI (NCI/ADR-RES ovarian): > 100 µM
- TGI (OVCAR-3 ovarian): > 100 µM
- TGI (OVCAR-4 ovarian): > 100 µM
- TGI (OVCAR-5 ovarian): > 100 µM
- TGI (OVCAR-8 ovarian): > 100 µM
- TGI (PC-3 prostate): > 100 µM
- TGI (RPMI-8226 leukemia): > 100 µM
- TGI (RXF 393 renal): > 100 µM
- TGI (SF-268 CNS): > 100 µM
- TGI (SF-295 CNS): > 100 µM
- TGI (SF-539 CNS): > 100 µM
- TGI (SK-MEL-2 melanoma): > 100 µM
- TGI (SK-MEL-28 melanoma): > 100 µM
- TGI (SK-MEL-5 melanoma): > 100 µM
- TGI (SK-OV-3 ovarian): > 100 µM
- TGI (SN12C renal): > 100 µM
- TGI (SNB-19 CNS): > 100 µM
- TGI (SNB-75 CNS): > 100 µM
- TGI (SR leukemia): > 100 µM
- TGI (SW-620 colon): > 100 µM
- TGI (T-47D breast): > 100 µM
- TGI (U251 CNS): > 100 µM
- TGI (UACC-257 melanoma): > 100 µM
- TGI (UACC-62 melanoma): > 100 µM
- TGI (UO-31 renal): > 100 µM

SMILES: CCOC(=O)C(Cc1c2ccccc2cc2ccccc12)(NC(C)=O)C(=O)OCC
- TGI (786-0 renal): > 100 µM
- TGI (A498 renal): > 100 µM
- TGI (A549 NSCLC): > 100 µM
- TGI (ACHN renal): > 100 µM
- TGI (BT-549 breast): > 100 µM
- TGI (CAKI-1 renal): > 100 µM
- TGI (CCRF-CEM leukemia): > 100 µM
- TGI (COLO 205 colon): > 100 µM
- TGI (DU-145 prostate): > 100 µM
- TGI (EKVX NSCLC): > 100 µM
- TGI (HCC-2998 colon): > 100 µM
- TGI (HCT-116 colon): > 100 µM
- TGI (HCT-15 colon): > 100 µM
- TGI (HL-60(TB) leukemia): > 100 µM
- TGI (HOP-62 NSCLC): > 100 µM
- TGI (HOP-92 NSCLC): 83.1 µM
- TGI (HS 578T breast): > 100 µM
- TGI (HT29 colon): > 100 µM
- TGI (IGROV1 ovarian): > 100 µM
- TGI (K-562 leukemia): > 100 µM
- TGI (KM12 colon): > 100 µM
- TGI (LOX IMVI melanoma): > 100 µM
- TGI (M14 melanoma): > 100 µM
- TGI (MALME-3M melanoma): > 100 µM
- TGI (MCF7 breast): > 100 µM
- TGI (MDA-MB-231 breast): > 100 µM
- TGI (MDA-MB-435): > 100 µM
- TGI (MDA-N): > 100 µM
- TGI (MOLT-4 leukemia): > 90.1 µM
- TGI (NCI-H226 lung): > 100 µM
- TGI (NCI-H23 lung): > 100 µM
- TGI (NCI-H460 lung): > 100 µM
- TGI (NCI-H522 lung): > 100 µM
- TGI (NCI/ADR-RES ovarian): > 100 µM
- TGI (OVCAR-3 ovarian): > 100 µM
- TGI (OVCAR-4 ovarian): > 100 µM
- TGI (OVCAR-5 ovarian): > 100 µM
- TGI (OVCAR-8 ovarian): > 100 µM
- TGI (PC-3 prostate): > 100 µM
- TGI (RPMI-8226 leukemia): > 100 µM
- TGI (RXF 393 renal): > 100 µM
- TGI (SF-268 CNS): > 100 µM
- TGI (SF-295 CNS): > 100 µM
- TGI (SF-539 CNS): > 100 µM
- TGI (SK-MEL-2 melanoma): > 100 µM
- TGI (SK-MEL-28 melanoma): > 100 µM
- TGI (SK-MEL-5 melanoma): > 100 µM
- TGI (SK-OV-3 ovarian): > 100 µM
- TGI (SN12C renal): > 100 µM
- TGI (SNB-19 CNS): > 100 µM
- TGI (SNB-75 CNS): > 80.6 µM
- TGI (SR leukemia): > 100 µM
- TGI (SW-620 colon): > 100 µM
- TGI (T-47D breast): > 100 µM
- TGI (TK-10 renal): > 100 µM
- TGI (U251 CNS): > 100 µM
- TGI (UACC-257 melanoma): > 100 µM
- TGI (UACC-62 melanoma): > 80.9 µM
- TGI (UO-31 renal): > 100 µM
